In brackets after ≈: the same amount, converted by molar mass.

Series [1] has as its system Rattus norvegicus.
For series [2], the system named is Apis mellifera. To be noted: acute, duration: 48 hours, mortality.
Series [3] concerns Hyalella azteca. To be noted: acute; duration: 96 hours; mortality.
In series [4] the test system is Lepomis macrochirus. The settings on record: acute; oral; feed; mortality.
Series [5] deals with Oryctolagus sp. To be noted: developmental; development.
Series [6] deals with Cyprinus carpio. The settings on record: chronic/long-term.
The test system of series [7] is Serinus canaria.
The subject of series [8] is Bibionidae. The settings on record: chronic/long-term; duration: 29 days.
In series [9] the test system is Cyprinodon variegatus. The settings on record: acute; duration: 96 hours; oral; feed; mortality.
For series [10], the system named is Oncorhynchus mykiss. The settings on record: acute; duration: 96 hours; oral; feed; mortality.
Series [11] relates to Tagia sp. The settings on record: acute; duration: 14 days; mortality.
The test system of series [12] is Typhlodromus pyri. Description: LR50; higher = less toxic. The settings on record: acute; mortality.

With `N#CN=C1SCCN1Cc1ccc(Cl)nc1` [Thiacloprid], the LD50 is 177 mg/kg-day in [1] (acute, oral, Fischer 344, mortality); 38.8 µg/piece in series [2] (dermal); 17.3 µg/piece in [2] (oral, unspecified); 3.5 mg/kg-day in [7] (chronic/long-term). Also, the NOAEL in series [1] (chronic, histopathology: nonneoplastic) was determined as 1.2 mg/kg-day; in [1] (developmental, development), 2 mg/kg-day; in series [1] (reproduction developmental, reproduction), 3.3 mg/kg-day; in series [5], 2 mg/kg-day; in series [7] (acute, oral, unspecified, mortality) it was 15 mg/kg-day. In addition, the LC50 in [3] is greater than 47.6 µg/mL; in [4], greater than 78.6 µg/mL; in series [9] it was 19.7 µg/mL (≈ 77.9 µM); in [10] it was greater than 90.1 µg/mL; in series [11] it was 105 mg/kg. Besides, the NOEC is 4.5 µg/L in series [6] and 0.63 µg/kg in series [8]. The LR50 in [12] stood at 0.331 g/ha.
